Key:
PDGF-R = PDGF-R (Homo sapiens, UniProt P09619); test: PDGF-R ELISA; assay type: cell-based
Text: A PDGF-R ELISA is described in International Patent Publication No. WO 96/40116, published December 19, 1996 by Tang et al.

EGFR = biological target: T1, EGFR (Homo sapiens, UniProt P00533); test: EGFR ELISA assay (in vitro kinase activity, EGFR captured from A431 cell lysate); assay type: biochemical; design: concentration or dose not given beside the values
T1 construct: Add 7 ug A431 cell lysate per well (EGFR source); endogenous in cells; host or cells: A431
T1 sequence (P00533 25-1210): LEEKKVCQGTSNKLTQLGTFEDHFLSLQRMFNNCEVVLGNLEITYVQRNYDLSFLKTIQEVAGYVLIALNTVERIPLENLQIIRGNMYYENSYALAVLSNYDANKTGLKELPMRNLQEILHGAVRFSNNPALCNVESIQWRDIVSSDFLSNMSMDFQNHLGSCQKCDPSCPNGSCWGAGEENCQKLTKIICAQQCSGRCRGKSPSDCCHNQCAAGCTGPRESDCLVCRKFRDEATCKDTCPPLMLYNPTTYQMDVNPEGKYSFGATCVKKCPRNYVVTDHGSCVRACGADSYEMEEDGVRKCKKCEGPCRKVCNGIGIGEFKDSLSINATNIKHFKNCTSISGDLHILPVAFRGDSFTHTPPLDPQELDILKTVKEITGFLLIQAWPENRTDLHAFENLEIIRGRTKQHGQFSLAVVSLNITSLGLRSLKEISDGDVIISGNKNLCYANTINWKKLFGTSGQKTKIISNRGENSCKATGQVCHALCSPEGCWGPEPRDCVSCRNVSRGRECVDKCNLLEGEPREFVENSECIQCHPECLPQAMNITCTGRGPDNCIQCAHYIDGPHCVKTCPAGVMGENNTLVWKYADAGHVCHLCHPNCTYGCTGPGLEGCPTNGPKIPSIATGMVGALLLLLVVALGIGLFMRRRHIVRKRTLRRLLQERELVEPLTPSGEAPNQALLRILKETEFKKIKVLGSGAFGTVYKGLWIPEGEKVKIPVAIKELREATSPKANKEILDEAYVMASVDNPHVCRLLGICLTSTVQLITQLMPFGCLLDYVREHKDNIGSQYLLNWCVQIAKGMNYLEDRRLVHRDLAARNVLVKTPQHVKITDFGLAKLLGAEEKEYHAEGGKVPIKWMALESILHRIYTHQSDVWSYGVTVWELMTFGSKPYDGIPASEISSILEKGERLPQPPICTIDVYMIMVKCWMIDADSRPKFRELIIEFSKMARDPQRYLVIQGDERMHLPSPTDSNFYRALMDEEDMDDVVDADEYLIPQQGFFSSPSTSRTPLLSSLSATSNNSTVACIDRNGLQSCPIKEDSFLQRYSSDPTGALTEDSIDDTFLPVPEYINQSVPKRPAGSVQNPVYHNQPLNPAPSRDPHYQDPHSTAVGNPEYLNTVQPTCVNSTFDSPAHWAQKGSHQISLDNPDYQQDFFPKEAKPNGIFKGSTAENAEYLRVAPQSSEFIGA
In short: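 EGFR from A431 lysate was captured on anti-EGFR antibody-coated plates and preincubated with compounds for 30 min. Autophosphorylation ran 5 min with 3 uM ATP and 5 mM MnCl2 (final), stopped with 20 mM EDTA. Phosphotyrosine was detected by anti-pTyr ELISA with ABTS/H2O2, read at 410 nm.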

MET = MET biochemical kinase assay; design: species or system human; concentration or dose not given beside the values
In short: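 Immunocaptured MET autophosphorylation, read colorimetrically (TMB) via HRP anti-phosphotyrosine antibody. Kinase reaction initiated with buffer containing ATP and divalent metals after compound addition to plate-bound receptor from lysates.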

PDGF-R, sequence (P09619 33-1106, species assumed): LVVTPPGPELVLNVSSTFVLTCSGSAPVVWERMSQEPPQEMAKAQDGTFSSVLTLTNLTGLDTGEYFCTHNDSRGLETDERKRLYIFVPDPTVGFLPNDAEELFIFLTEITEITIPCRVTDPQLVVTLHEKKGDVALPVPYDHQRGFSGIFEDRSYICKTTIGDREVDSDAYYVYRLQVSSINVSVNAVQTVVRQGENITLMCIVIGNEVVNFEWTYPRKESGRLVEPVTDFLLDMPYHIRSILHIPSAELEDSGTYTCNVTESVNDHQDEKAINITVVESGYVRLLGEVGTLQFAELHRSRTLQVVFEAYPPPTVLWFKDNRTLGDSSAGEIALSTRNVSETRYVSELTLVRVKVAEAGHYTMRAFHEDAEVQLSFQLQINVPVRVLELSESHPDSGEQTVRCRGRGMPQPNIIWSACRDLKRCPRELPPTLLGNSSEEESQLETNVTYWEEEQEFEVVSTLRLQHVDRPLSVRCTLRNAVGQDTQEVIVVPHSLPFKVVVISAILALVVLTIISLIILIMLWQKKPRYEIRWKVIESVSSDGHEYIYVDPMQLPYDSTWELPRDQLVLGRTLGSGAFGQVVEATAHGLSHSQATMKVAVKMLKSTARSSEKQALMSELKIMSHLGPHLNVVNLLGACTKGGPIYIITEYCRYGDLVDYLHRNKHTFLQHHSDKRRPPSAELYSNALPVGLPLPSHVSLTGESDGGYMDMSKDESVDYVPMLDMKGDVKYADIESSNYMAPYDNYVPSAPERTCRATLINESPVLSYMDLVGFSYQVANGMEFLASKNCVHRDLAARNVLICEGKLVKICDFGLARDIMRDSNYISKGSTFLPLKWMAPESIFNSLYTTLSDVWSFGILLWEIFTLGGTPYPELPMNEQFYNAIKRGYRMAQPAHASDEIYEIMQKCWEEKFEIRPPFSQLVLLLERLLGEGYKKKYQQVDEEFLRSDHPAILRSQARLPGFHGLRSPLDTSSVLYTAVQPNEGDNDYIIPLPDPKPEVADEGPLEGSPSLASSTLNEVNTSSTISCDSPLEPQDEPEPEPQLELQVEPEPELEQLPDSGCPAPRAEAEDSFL

With `O=C(O)COc1ccccc1C=C1C(=O)Nc2ccc(S(=O)(=O)Nc3ccc(C(F)(F)F)cc3)cc21` [10728/E10] the “PDGF Kinase %Inhibition” value (PDGF-R) was 13.8%, the “Biochem EGFR %Inhibition” value (EGFR) was -20.8% and the “Met Kinase % Inhibition” value (MET) was 57.2%.
In the case of `O=C1Nc2c(Br)cc(Br)cc2C1=Cc1ccncc1` [10729/A09], the “PDGF Kinase %Inhibition” value (PDGF-R) is reported as 11.0%, the “Biochem EGFR %Inhibition” value (EGFR) is reported as 25.7% and the “Met Kinase % Inhibition” value (MET) is reported as 80.3%.
For `O=C1Nc2ccc(I)cc2C1=Cc1ccc(N2CCCC2)cc1` [10729/B10], the “PDGF Kinase %Inhibition” value (PDGF-R) was -13.9%, the “Biochem EGFR %Inhibition” value (EGFR) was 68.3% and the “Met Kinase % Inhibition” value (MET) was 32.6%.
In the case of `CNS(=O)(=O)c1ccc2c(c1)C(=Cc1ccc(N3CCCC3)cc1)C(=O)N2` [10729/D10], the “PDGF Kinase %Inhibition” value (PDGF-R) is reported as -11.3%, the “Biochem EGFR %Inhibition” value (EGFR) is reported as 11.3% and the “Met Kinase % Inhibition” value (MET) is reported as 36.1%.
In the case of `COc1ccc(C=C2C(=O)Nc3ccc(I)cc32)c2ccccc12` [10729/B03], the “PDGF Kinase %Inhibition” value (PDGF-R) is reported as -9.4%, the “Biochem EGFR %Inhibition” value (EGFR) is reported as 38.2% and the “Met Kinase % Inhibition” value (MET) is reported as 57.3%.
For `Cc1c(Br)ccc2c1C(=Cc1ccc(N3CCCC3)cc1)C(=O)N2` [10729/C10], the “PDGF Kinase %Inhibition” value (PDGF-R) was 3.5%, the “Biochem EGFR %Inhibition” value (EGFR) was 45.7% and the “Met Kinase % Inhibition” value (MET) was 15.8%.
For `O=C1Nc2c(Br)cc(Br)cc2C1=Cc1ccccn1` [10729/A07], the “PDGF Kinase %Inhibition” value (PDGF-R) was -36.7%, the “Biochem EGFR %Inhibition” value (EGFR) was 49.0% and the “Met Kinase % Inhibition” value (MET) was 51.1%.
With `CNS(=O)(=O)c1ccc2c(c1)C(=Cc1ccc(OC)c3ccccc13)C(=O)N2` [10729/D03] the “PDGF Kinase %Inhibition” value (PDGF-R) was 14.1%, the “Biochem EGFR %Inhibition” value (EGFR) was 15.5% and the “Met Kinase % Inhibition” value (MET) was 22.6%.
With `COc1cc(C=C2C(=O)Nc3ccc(S(=O)(=O)Nc4ccc(C(F)(F)F)cc4)cc32)cc(OC)c1` [10728/E04] the “PDGF Kinase %Inhibition” value (PDGF-R) was 23.2%, the “Biochem EGFR %Inhibition” value (EGFR) was 10.1% and the “Met Kinase % Inhibition” value (MET) was 25.6%.
In the case of `Cc1c(Br)ccc2c1C(=Cc1ccncc1)C(=O)N2` [10729/C09], the “PDGF Kinase %Inhibition” value (PDGF-R) is reported as -34.8%, the “Biochem EGFR %Inhibition” value (EGFR) is reported as 33.2% and the “Met Kinase % Inhibition” value (MET) is reported as 60.4%.
For `COc1ccc2ccccc2c1C=C1C(=O)Nc2ccc(I)cc21` [10729/B02], the “PDGF Kinase %Inhibition” value (PDGF-R) was -10.2%, the “Biochem EGFR %Inhibition” value (EGFR) was 34.9% and the “Met Kinase % Inhibition” value (MET) was 77.2%.
With `COc1ccc2ccccc2c1C=C1C(=O)Nc2c(Br)cc(Br)cc21` [10729/A02] the “PDGF Kinase %Inhibition” value (PDGF-R) was -25.7%, the “Biochem EGFR %Inhibition” value (EGFR) was 10.0% and the “Met Kinase % Inhibition” value (MET) was 28.1%.
In the case of `COc1cccc(OC)c1C=C1C(=O)Nc2ccc(S(=O)(=O)Nc3ccc(C(F)(F)F)cc3)cc21` [10728/E03], the “PDGF Kinase %Inhibition” value (PDGF-R) is reported as 12.0%, the “Biochem EGFR %Inhibition” value (EGFR) is reported as 9.5% and the “Met Kinase % Inhibition” value (MET) is reported as 11.9%.
In the case of `O=C1Nc2ccc(S(=O)(=O)Nc3ccc(C(F)(F)F)cc3)cc2C1=Cc1cccc(C(F)(F)F)c1F` [10728/E07], the “PDGF Kinase %Inhibition” value (PDGF-R) is reported as 28.0%, the “Biochem EGFR %Inhibition” value (EGFR) is reported as 21.8% and the “Met Kinase % Inhibition” value (MET) is reported as 79.8%.
In the case of `COc1ccc(C=C2C(=O)Nc3c(Br)cc(Br)cc32)c2ccccc12` [10729/A03], the “PDGF Kinase %Inhibition” value (PDGF-R) is reported as 1.9%, the “Biochem EGFR %Inhibition” value (EGFR) is reported as 27.0% and the “Met Kinase % Inhibition” value (MET) is reported as 27.5%.
For `CNS(=O)(=O)c1ccc2c(c1)C(=Cc1ccc(SC)cc1)C(=O)N2` [10729/D04], the “PDGF Kinase %Inhibition” value (PDGF-R) was -12.8%, the “Biochem EGFR %Inhibition” value (EGFR) was 18.8% and the “Met Kinase % Inhibition” value (MET) was 33.1%.
In the case of `O=C1Nc2ccc(S(=O)(=O)Nc3ccc(C(F)(F)F)cc3)cc2C1=Cc1ccccn1` [10729/E07], the “PDGF Kinase %Inhibition” value (PDGF-R) is reported as 29.6%, the “Biochem EGFR %Inhibition” value (EGFR) is reported as 26.7% and the “Met Kinase % Inhibition” value (MET) is reported as 21.6%.
With `O=C1Nc2ccc(S(=O)(=O)Nc3ccc(C(F)(F)F)cc3)cc2C1=Cc1ccc2c(c1)Cc1ccccc1-2` [10728/E06] the “PDGF Kinase %Inhibition” value (PDGF-R) was 12.0%, the “Biochem EGFR %Inhibition” value (EGFR) was -4.7% and the “Met Kinase % Inhibition” value (MET) was 26.4%.
For `CNS(=O)(=O)c1ccc2c(c1)C(=Cc1cc(C(F)(F)F)ccc1F)C(=O)N2` [10728/D08], the “PDGF Kinase %Inhibition” value (PDGF-R) was 2.7%, the “Biochem EGFR %Inhibition” value (EGFR) was 6.9% and the “Met Kinase % Inhibition” value (MET) was 34.7%.
For `CNS(=O)(=O)c1ccc2c(c1)C(=Cc1sccc1C)C(=O)N2` [10729/D05], the “PDGF Kinase %Inhibition” value (PDGF-R) was 2.3%, the “Biochem EGFR %Inhibition” value (EGFR) was 22.1% and the “Met Kinase % Inhibition” value (MET) was 28.1%.
`Cc1c(Br)ccc2c1C(=CC1C=CCCC1)C(=O)N2` (stereo not drawn) [10729/C11] was tested, and the “PDGF Kinase %Inhibition” value (PDGF-R) was -17.4%, the “Biochem EGFR %Inhibition” value (EGFR) was 35.9% and the “Met Kinase % Inhibition” value (MET) was 41.3%.
`Cc1c(Br)ccc2c1C(=Cc1ccccn1)C(=O)N2` [10729/C07] was tested, and the “PDGF Kinase %Inhibition” value (PDGF-R) was -1.8%, the “Biochem EGFR %Inhibition” value (EGFR) was 60.8% and the “Met Kinase % Inhibition” value (MET) was 58.4%.
With `Cc1ccsc1C=C1C(=O)Nc2c(Br)cc(Br)cc21` [10729/A05] the “PDGF Kinase %Inhibition” value (PDGF-R) was -6.8%, the “Biochem EGFR %Inhibition” value (EGFR) was 23.4% and the “Met Kinase % Inhibition” value (MET) was 38.8%.
In the case of `CNS(=O)(=O)c1ccc2c(c1)C(=Cc1cccc(C(F)(F)F)c1F)C(=O)N2` [10728/D07], the “PDGF Kinase %Inhibition” value (PDGF-R) is reported as 2.3%, the “Biochem EGFR %Inhibition” value (EGFR) is reported as 2.4% and the “Met Kinase % Inhibition” value (MET) is reported as 21.8%.
For `O=C1Nc2ccc(S(=O)(=O)Nc3ccc(C(F)(F)F)cc3)cc2C1=Cc1cc(C(F)(F)F)ccc1F` [10728/E08], the “PDGF Kinase %Inhibition” value (PDGF-R) was 29.4%, the “Biochem EGFR %Inhibition” value (EGFR) was 5.1% and the “Met Kinase % Inhibition” value (MET) was 46.3%.
With `O=C1Nc2ccc(CCCl)cc2C1=Cc1cccc(C(F)(F)F)c1F` [10728/G07] the “PDGF Kinase %Inhibition” value (PDGF-R) was -17.3%, the “Biochem EGFR %Inhibition” value (EGFR) was -12.3% and the “Met Kinase % Inhibition” value (MET) was 42.4%.
In the case of `CNS(=O)(=O)c1ccc2c(c1)C(=CC1C=CCCC1)C(=O)N2` (stereo not drawn) [10729/D11], the “PDGF Kinase %Inhibition” value (PDGF-R) is reported as 0.1%, the “Biochem EGFR %Inhibition” value (EGFR) is reported as 19.2% and the “Met Kinase % Inhibition” value (MET) is reported as 18.8%.
For `O=C1Nc2ccc(CCCl)cc2C1=Cc1c(F)cccc1C(F)(F)F` [10728/G09], the “PDGF Kinase %Inhibition” value (PDGF-R) was 6.3%, the “Biochem EGFR %Inhibition” value (EGFR) was -8.0% and the “Met Kinase % Inhibition” value (MET) was 22.2%.
`O=C1Nc2ccc(CCCl)cc2C1=Cc1cc(C(F)(F)F)ccc1F` [10728/G08] was tested, and the “PDGF Kinase %Inhibition” value (PDGF-R) was -11.9%, the “Biochem EGFR %Inhibition” value (EGFR) was -5.7% and the “Met Kinase % Inhibition” value (MET) was 42.3%.
For `O=C(O)COc1ccccc1C=C1C(=O)Nc2ccc(CCCl)cc21` [10728/G10], the “PDGF Kinase %Inhibition” value (PDGF-R) was -0.8%, the “Biochem EGFR %Inhibition” value (EGFR) was -12.5% and the “Met Kinase % Inhibition” value (MET) was 27.9%.

Source: patent EP1247803A2, “Indolinone compounds suitable for modulation of protein kinases” (Sugen, Inc., priority 1996, dated 1998)
